Assay results reported in article PMC3264756 (2011).
pEC50: −log10 of the molar value.

Molecular target: acetyl-CoA carboxylase (TbACC) (Trypanosoma brucei, UniProt Q57YR7)
Assay type: biochemical

CC(Oc1ccc(Oc2ncc(C(F)(F)F)cc2Cl)cc1)C(=O)O (stereo not shown) [haloxyfop] gave a pEC50 of 4.17.
